Measurements as given in the supplement of paper PMC11061612.

Key:
Assay in all cases: combination Emax (second highest fraction inhibited in the dose matrix, 72 h); higher = more inhibition; extreme values may be limits of the assay
[1] = test system: PC-3_[JPC-3] (Lung Adenocarcinoma)
Procedure, shortened: (§1)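 Cell lines in DMEM/F12 or RPMI with 10% FBS were plated in 1536-well plates, held 24 hours at 37°C, 5% CO2, then given two-drug dose matrices for 72 hours (DMSO typically 0.2%). Viability was read by CellTiter-Glo 2.0 luminescence and scaled as inhibition from 0 (vehicle wells) to 1 (blank wells). Combination Emax is the second-highest inhibition in the matrix; Bliss excess is observed combination effect minus expected EA + EB − EA·EB, EA and EB being single-agent effects.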

[2] = test system: HSC-39 (Gastric Carcinoma)
Procedure, shortened: as §1

[3] = test system: OPM-2 (Plasma Cell Myeloma)
Procedure, shortened: as §1

[4] = test system: VAL (B-Cell Non-Hodgkin's Lymphoma)
Procedure, shortened: as §1

[5] = test system: NCI-H2342 (Lung Adenocarcinoma)
Procedure, shortened: as §1

SK-MEL-2 (Melanoma) = test system: SK-MEL-2 (Melanoma)
Procedure, shortened: as §1

[6] = test system: REH (B-Lymphoblastic Leukemia)
Procedure, shortened: as §1

NB12 (Neuroblastoma) = test system: NB12 (Neuroblastoma)
Procedure, shortened: as §1

SMILES | combination Emax [1] | combination Emax [2] | combination Emax [3] | combination Emax [4] | combination Emax [5] | combination Emax (SK-MEL-2 (Melanoma)) | combination Emax [6] | combination Emax (NB12 (Neuroblastoma))
C=CCn1c(=O)c2cnc(Nc3ccc(N4CCN(C)CC4)cc3)nc2n1-c1cccc(C(C)(C)O)n1 [AZD1775] + CCc1c2c(nc3ccc(O)cc13)-c1cc3c(c(=O)n1C2)COC(=O)[C@]3(O)CC [SN-38] (first compound max 1 µM, partner max 0.3 µM) | 0.736 | 1 | 0.954 | 0.953 | 0.737 | 0.619 | 0.989 | 0.879
C=CCn1c(=O)c2cnc(Nc3ccc(N4CCN(C)CC4)cc3)nc2n1-c1cccc(C(C)(C)O)n1 [AZD1775] + Nc1ccn([C@@H]2O[C@H](CO)[C@@H](O)C2(F)F)c(=O)n1 [Gemcitabine] (first compound max 1 µM, partner max 0.3 µM) | 0.574 | 1 | 0.953 | 0.794 | 0.784 | 0.507 | 0.999 | 0.806
CN(CCO)CC[C@H](CSc1ccccc1)Nc1ccc(S(=O)(=O)NC(=O)c2ccc(N3CCC([C@@H](O)c4ccccc4-c4ccc(Cl)cc4)CC3)cc2)cc1S(=O)(=O)C(F)(F)F [AZD4320] + CC(=O)O[C@H]1C(=O)[C@@]2(C)[C@H]([C@H](OC(=O)c3ccccc3)[C@]3(O)C[C@H](OC(=O)[C@H](O)[C@@H](NC(=O)c4ccccc4)c4ccccc4)C(C)=C1C3(C)C)[C@]1(OC(C)=O)CO[C@@H]1C[C@@H]2O [Paclitaxel] (first compound max 1 µM, 7x7, partner max 3 µM) | 0.76 | 1 | 1 | 1 | 0.977 | 0.915 | 1 | 1
CN(CCO)CC[C@H](CSc1ccccc1)Nc1ccc(S(=O)(=O)NC(=O)c2ccc(N3CCC([C@@H](O)c4ccccc4-c4ccc(Cl)cc4)CC3)cc2)cc1S(=O)(=O)C(F)(F)F [AZD4320] + CS(=O)(=O)CCNCc1ccc(-c2ccc3ncnc(Nc4ccc(OCc5cccc(F)c5)c(Cl)c4)c3c2)o1 [Lapatinib] (first compound max 1 µM, 7x7, partner max 10 µM) | 0.912 | 0.985 | 0.938 | 1 | 0.368 | 0.27 | 1 | 1
CN(CCO)CC[C@H](CSc1ccccc1)Nc1ccc(S(=O)(=O)NC(=O)c2ccc(N3CCC([C@@H](O)c4ccccc4-c4ccc(Cl)cc4)CC3)cc2)cc1S(=O)(=O)C(F)(F)F [AZD4320] + Nc1ccn([C@@H]2O[C@H](CO)[C@@H](O)C2(F)F)c(=O)n1 [Gemcitabine] (first compound max 1 µM, 7x7, partner max 0.3 µM) | 0.675 | 0.869 | 0.628 | 1 | 0.403 | 0.0969 | 1 | 1
Cc1c2c(nn1C)CSCc1cc(n(C)n1)CSc1cc(c3ccccc3c1)OCCCc1c(C(=O)O)n(C)c3c-2c(Cl)ccc13 [AZD5991] + CC(=O)O[C@H]1C(=O)[C@@]2(C)[C@H]([C@H](OC(=O)c3ccccc3)[C@]3(O)C[C@H](OC(=O)[C@H](O)[C@@H](NC(=O)c4ccccc4)c4ccccc4)C(C)=C1C3(C)C)[C@]1(OC(C)=O)CO[C@@H]1C[C@@H]2O [Paclitaxel] (first compound max 1 µM, 7x7, partner max 3 µM) | 0.58 | 1 | 1 | 0.765 | 0.988 | 1 | 1 | 0.91
Cc1c2c(nn1C)CSCc1cc(n(C)n1)CSc1cc(c3ccccc3c1)OCCCc1c(C(=O)O)n(C)c3c-2c(Cl)ccc13 [AZD5991] + CS(=O)(=O)CCNCc1ccc(-c2ccc3ncnc(Nc4ccc(OCc5cccc(F)c5)c(Cl)c4)c3c2)o1 [Lapatinib] (first compound max 1 µM, 7x7, partner max 10 µM) | 0.833 | 1 | 1 | 0.677 | 0.34 | 0.955 | 0.862 | 0.464
Cc1c2c(nn1C)CSCc1cc(n(C)n1)CSc1cc(c3ccccc3c1)OCCCc1c(C(=O)O)n(C)c3c-2c(Cl)ccc13 [AZD5991] + Nc1ccn([C@@H]2O[C@H](CO)[C@@H](O)C2(F)F)c(=O)n1 [Gemcitabine] (first compound max 1 µM, 7x7, partner max 0.3 µM) | 0.58 | 1 | 1 | 0.847 | 0.636 | 0.925 | 0.984 | 0.77
C[C@@H]1COCCN1c1cc(C2([S@](C)(=N)=O)CC2)nc(-c2ccnc3[nH]ccc23)n1 [AZD6738] + C1CC(C1)(C(=O)[O-])C(=O)[O-].N.N.[Pt+2] [Carboplatin] (first compound max 10 µM, 7x7, partner max 10 µM) | 0.294 | 1 | 0.828 | 0.7 | 0.492 | 0.201 | 0.629 | 
C[C@@H]1COCCN1c1cc(C2([S@](C)(=N)=O)CC2)nc(-c2ccnc3[nH]ccc23)n1 [AZD6738] + Nc1ccn([C@@H]2O[C@H](CO)[C@@H](O)C2(F)F)c(=O)n1 [Gemcitabine] (first compound max 10 µM, 7x7, partner max 0.3 µM) | 0.665 | 1 | 0.942 | 0.809 | 0.85 | 0.454 | 0.994 | 0.801
Cc1cc2ncnn2cc1Nc1ncc2c(n1)n(C1CCOCC1)c(=O)n2C [AZD7648] + COc1cc([C@@H]2c3cc4c(cc3[C@@H](O[C@@H]3O[C@@H]5CO[C@@H](C)O[C@H]5[C@H](O)[C@H]3O)[C@H]3COC(=O)[C@H]23)OCO4)cc(OC)c1O [Etoposide] (first compound max 10 µM, 7x7, partner max 10 µM) | 0.415 | 0.854 | 0.788 | 0.905 | 0.569 | 0.166 | 0.976 | 0.695
C[C@@H](Nc1cc(F)cc(F)c1)c1cc(C(=O)N(C)C)cc2c(=O)cc(N3CCOCC3)oc12 [AZD8186] + C1CN(CCC1(C(=O)N[C@@H](CCO)C2=CC=C(C=C2)Cl)N)C3=NC=NC4=C3C=CN4 [AZD5363] (first compound max 10 µM, 7x7, partner max 10 µM) | 0.295 | 0.603 | 0.922 | 0.555 | 0.286 | 0.113 | 0.452 | 0.419
C[C@@H](Nc1cc(F)cc(F)c1)c1cc(C(=O)N(C)C)cc2c(=O)cc(N3CCOCC3)oc12 [AZD8186] + CC(=O)c1c(C)c2cnc(Nc3ccc(N4CCNCC4)cn3)nc2n(C2CCCC2)c1=O [Palbociclib] (first compound max 10 µM, 7x7, partner max 10 µM) | 0.369 | 0.813 | 0.563 | 0.707 | 0.337 | 0 | 0.625 | 0.403
C[C@@H](Oc1cc(-c2cnn(C3CCNCC3)c2)cnc1N)c1c(Cl)ccc(F)c1Cl [Crizotinib] + CC1=C(C(=CC=C1)Cl)NC(=O)C2=CN=C(S2)NC3=CC(=NC(=N3)C)N4CCN(CC4)CCO [Dasatinib] (first compound max 10 µM, 7x7, partner max 2 µM) | 0.809 | 1 | 0.964 | 0.841 | 0.37 | 0.0969 | 0.752 | 0.766
C[C@@H](Oc1cc(-c2cnn(C3CCNCC3)c2)cnc1N)c1c(Cl)ccc(F)c1Cl [Crizotinib] + Cn1cnc2c(F)c(Nc3ccc(Br)cc3Cl)c(C(=O)NOCCO)cc21 [Selumetinib] (first compound max 10 µM, 7x7, partner max 10 µM) | 0.242 | 0.975 | 0.985 | 0.758 | 0.285 | 0.881 | 0.721 | 0.79
O=C(c1cc(Cc2n[nH]c(=O)c3ccccc23)ccc1F)N1CCN(C(=O)C2CC2)CC1 [Olaparib] + CC1(C)CCC(CN2CCN(c3ccc(C(=O)NS(=O)(=O)c4ccc(NCC5CCOCC5)c([N+](=O)[O-])c4)c(Oc4cnc5[nH]ccc5c4)c3)CC2)=C(c2ccc(Cl)cc2)C1 [Venetoclax] (first compound max 10 µM, 7x7, partner max 1 µM) | 0.153 | 0.205 | 0.256 | 1 | 0.158 | 0.162 | 0.966 | 0.922
O=C(c1cc(Cc2n[nH]c(=O)c3ccccc23)ccc1F)N1CCN(C(=O)C2CC2)CC1 [Olaparib] + CN(CC[C@H](CSC1=CC=CC=C1)NC2=C(C=C(C=C2)S(=O)(=O)NC(=O)C3=CC=C(C=C3)N4CCC(CC4)[C@H](C5=CC=CC=C5C6=CC=C(C=C6)Cl)O)S(=O)(=O)C(F)(F)F)CCO [AZD4320] (first compound max 10 µM, 7x7, partner max 1 µM) | 0.138 | 0.268 | 0.337 | 1 | 0.178 | 0.234 | 0.986 | 0.997
O=C(c1cc(Cc2n[nH]c(=O)c3ccccc23)ccc1F)N1CCN(C(=O)C2CC2)CC1 [Olaparib] + COc1nnc2ccc(N3CCC(c4ccc(OCCN5CCN(C)C(=O)[C@H]5C)cc4)CC3)nn12 [AZD5153] (first compound max 10 µM, 7x7, partner max 1 µM) | 0.182 | 0.762 | 1 | 0.771 | 0.289 | 0.53 | 0.762 | 0.782
O=C(c1cc(Cc2n[nH]c(=O)c3ccccc23)ccc1F)N1CCN(C(=O)C2CC2)CC1 [Olaparib] + Cc1c2c(nn1C)CSCc1cc(n(C)n1)CSc1cc(c3ccccc3c1)OCCCc1c(C(=O)O)n(C)c3c-2c(Cl)ccc13 [AZD5991] (first compound max 10 µM, 7x7, partner max 1 µM) | 0.0845 | 1 | 1 | 0.771 | 0.239 | 0.902 | 0.943 | 0.379
N#Cc1cnc(Nc2cc(NC[C@H]3CNCCO3)c(C(F)(F)F)cn2)cn1 [SRA737] + C=CCn1c(=O)c2cnc(Nc3ccc(N4CCN(C)CC4)cc3)nc2n1-c1cccc(C(C)(C)O)n1 [AZD1775] (first compound max 10 µM, partner max 1 µM) | 0.26 | 1 | 0.93 | 0.797 | 0.621 | 0.772 | 0.957 | 0.698
